Consider four molecules from US12685791B2, “Free PSA antibodies as diagnostics, prognostics and therapeutics for prostate cancer” (Memorial Sloan Kettering Cancer Center, priority 2011, dated 2026).

SMILES strings stand for the structures. Several values for one entry are separate records, joined by “and”; a condition that tells them apart may be missing. Equal values may be shown once.

The test system of data set [1] is bone remodeling (fractured tibia). The experiment in a line: Bone fracture model, PET/SPECT of bone remodeling. The data set is classed as in vivo, mice. The following applies: PET or SPECT. The procedure:
Osseous tumors were established in intact male mice via injection of LNCaP-AR in the tibia of the left hindlimb as follows. Prior to surgery, […] male SCID mice were anesthetized with ketamine, and an incision was be made in the left hind limb. The tibia was punctured using a bone drill, and 1×10^5 cells (22Rv1 or LNCaP-AR) injected into the marrow. The puncture was closed with bone wax, the incision sutured, and animals received a palliative dose of carprofen (5 mg/kg) once daily for three days post surgery. Tumor development was followed with bioluminescence imaging, and confirmed with MRI. The bone fracture model was prepared similar to the osseous tumor model, excluding injection of cells and application of bone wax.
In FIG. 14c, intact male mice received a fracture in the tibia, and ten days post surgery, bone remodeling was evaluated with ^18F—NaF. A clear region of contrast was identified in the fractured tibia by PET.

Data set [2] deals with LNCaP-AR xenografts. The experiment in a line: Ex vivo biodistribution of 89Zr-5A10, castrate male mice bearing LNCaP-AR xenografts treated with vehicle or MDV3100 (Table 13). The data set is classed as in vivo.
The test system of data set [3] is fPSA and tPSA. The data set is described as follows: Tumor PSA ELISA, castrate male mice bearing LNCaP-AR tumors treated with vehicle or MDV3100 (Table 14). In kind it is in vivo, human. The following applies: for f/t PSA Ratio / fPSA / fPSA/tProtein: tumor, individual mice, listed as MDV. The procedure:
(§1) Mice were injected with ^89Zr-5A10, and at the indicated time point post injection, were sacrificed for PSA analysis. Tumor tissues were surgically excised. fPSA and total PSA (“tPSA”) were determined with PSA-directed ELISA, and the values were normalized to total protein concentration. fPSA concentrations are reported as average ng/ml(a), total PSA (“tPSA”) concentrations are reported as ng/mL (b), and total protein concentrations are reported as ng/mg (c). ELISAs were conducted as follows for PSA detection in serum and tumor tissues. fPSA and tPSA were measured with a dual-label immunofluorometric assay (DELFIA Prostatus™ PSA Free/Total PSA; Perkin-Elmer Life Sciences) according to manufacturer's recommendations. This assay measured fPSA and complexed PSA (cPSA) in an equimolar fashion^8, and the cross-reactivity of PSA-ACT for fPSA was <0.2%^9. […] For detection, the 1235 automatic immunoassay system from Perkin-Elmer Life Sciences was used. cPSA concentrations were calculated by subtracting fPSA from tPSA.
As expected, each dose of MDV3100 inhibited AR signaling and fPSA synthesis (Table 14). Table 14 provides data regarding tumor analysis of PSA expression levels via ELISA in castrate male mice bearing LNCaP-AR tumors treated with antiandrogens. Castrate male mice bearing LNCaP-AR xenografts received a daily oral gavage of vehicle (VEH #), 10 mg/kg (MDV10 #), 40 mg/kg (MDV40 #), or 80 mg/kg (MDV80 #). Six days post manipulation, mice were injected with ^89Zr-5A10. Twenty four hours post injection, mice were sacrificed for PSA analysis. Tumor tissues were surgically excised. fPSA and tPSA were determined with PSA-directed ELISA (as above), and in the case of intratumoral PSA, the values were normalized to total protein concentration. ^afPSA concentrations are reported as ng/ml, ^btotal PSA concentrations are reported as ng/mL, ^ctotal protein concentrations are reported as ng/mg. Abbreviations: fPSA, fPSA; tPSA, total PSA.

In data set [4] the test system is LNCaP-AR xenografts. The experiment in a line: 89Zr-5A10 PET, region-of-interest analysis (SUVmean) of s.c. LNCaP-AR tumors (Table 16). In kind it is in vivo, mice.
The subject of data set [5] is fPSA and tPSA. The experiment in a line: Intratumoral PSA ELISA, castrate male mice bearing LNCaP-AR xenografts, no treatment or testosterone pellet (Table 10). In kind it is in vivo, human. The procedure: as §1
Table 10 provides intratumoral PSA concentrations in castrate male mice bearing LNCaP-AR xenografts, receiving either no manipulation, or a subcutaneous testosterone pellet. […] Twenty four hours post injection, mice were sacrificed for PSA analysis. Tumor tissues were surgically excised. fPSA and tPSA were determined with PSA-directed ELISA (as above), and in the case of intratumoral PSA, the values were normalized to total protein concentration. ^afPSA concentrations are reported as ng/ml, ^btotal PSA concentrations are reported as ng/mL, ^ctotal protein concentrations are reported as ng/mg. Abbreviations: fPSA, fPSA; tPSA, total PSA.

The subject of data set [6] is fPSA and tPSA. The experiment in a line: Tumor PSA ELISA, castrate male mice bearing 22Rv1 tumors, no treatment or testosterone pellet (Table 12). The data set is classed as in vivo, human. The note with it: 22Rv1 tumor, individual mice with s.c. testosterone pellet, 7 d. The procedure: as §1
Twenty four hours post-injection, mice were sacrificed for PSA analysis. […]
(In general: In an ELISA, binding on a coated surface is turned into a signal by an enzyme label.)

Setting [7] is: 10 mg/kg daily oral gavage, 10 mg/kg.
[8] abbreviates: 40 mg/kg daily oral gavage, 40 mg/kg.
The mark [9] stands for this setting: 80 mg/kg daily oral gavage, 80 mg/kg.
The mark [10] stands for this setting: tumor, individual mice with s.c. testosterone pellet, 7 d.

For the molecule `[18F-].[Na+]` [18FNaF], the “localization to site of bone repair (fractured tibia)” value in data set [1] was “readily localized”.

Take `O.O.O=P([O-])([O-])CP(=O)([O-])[O-].[99Tc+4]` [99mTc-MDP]: the “localization to site of bone repair (fractured tibia)” value in data set [1] is “readily localized”.

For the molecule `CNC(=O)c1ccc(N2C(=S)N(c3ccc(C#N)c(C(F)(F)F)c3)C(=O)C2(C)C)cc1F` [MDV3100], the “tumor-associated 89Zr-5A10” value with LNCaP-AR xenografts [2] (40 and 80 mg/kg dose vs vehicle) is “significantly decreased”. In addition, in the data set on LNCaP-AR xenografts [2] (daily oral gavage 7 d, 10, 40 or 80 mg/kg), the “effect on localization of 89Zr-5A10 to tumor” value is listed as “inhibits”. Moreover, the “AR signaling and fPSA synthesis” value with fPSA and tPSA [3] (each dose (10, 40, 80 mg/kg)) is on record as “inhibited”. In addition, in the data set with fPSA and tPSA [3] (setting [7]), the “f/t PSA Ratio” value was 0.73 and 0.56 and 0.60 and 0.69; the fPSA is 19.12 ng/mL and 48.98 ng/mL and 3.96 ng/mL and 474.40 ng/mL; the fPSA/tProtein was 3.29 and 7.07 and 0.88 and 51.57. In the data set on fPSA and tPSA [3] (setting [8]), the “f/t PSA Ratio” value was 0.89 and 0.85 and 0.80; the fPSA was 71.24 ng/mL and 43.25 ng/mL and 98.26 ng/mL; the fPSA/tProtein was 11.61 and 6.14 and 15.13. Besides, in the data set with fPSA and tPSA [3] (setting [9]), the “f/t PSA Ratio” value was 0.57 and 0.69 and 0.59; the fPSA was 5.97 ng/mL and 77.83 ng/mL and 57.31 ng/mL; the fPSA/tProtein was 1.18 and 10.34 and 9.99. For the same molecule, in the data set on LNCaP-AR xenografts [4] (80 mg/kg daily oral gavage vs vehicle), the “tumor-associated 89Zr-5A10 by PET” value is “statistical changes”.

Consider `C[C@]12CC[C@H]3[C@@H](CCC4=CC(=O)CC[C@@]43C)[C@@H]1CC[C@@H]2O` [testosterone], for which the “intratumoral PSA levels” value in the data set with fPSA and tPSA [5] (s.c. testosterone pellet vs no manipulation) is “increased”. For the same molecule, in the data set on fPSA and tPSA [5] (setting [10]), the “f/t PSA Ratio” value is 0.81 and 0.60 and 0.70 and 0.20; the fPSA was 147.77 ng/mL and 424.31 ng/mL and 384.89 ng/mL and 566.42 ng/mL; the fPSA/tProtein is 22.69 and 51.56 and 65.44 and 66.60. Moreover, in the data set on fPSA and tPSA [6], the fPSA was 31.0 ng/mL and 26.8 ng/mL and 29.8 ng/mL and 32.9 ng/mL; the fPSA/tProtein is 3.60 and 2.84 and 3.44 and 4.19. In addition, the “tumor-associated 89Zr-5A10 by PET” value in the data set with LNCaP-AR xenografts [4] (s.c. testosterone pellets) is “significant increase”.
